Where two headings read alike, the source gives them in different places.

One may read the IC50 as the concentration that inhibits the measured activity by half. By EC50 is commonly meant the concentration giving half of the maximal effect.

The target in data set [1] is T1, monoacylglyceride lipase (MAGL) (Homo sapiens, UniProt Q99685).
T1 sequence (Q99685 1-303): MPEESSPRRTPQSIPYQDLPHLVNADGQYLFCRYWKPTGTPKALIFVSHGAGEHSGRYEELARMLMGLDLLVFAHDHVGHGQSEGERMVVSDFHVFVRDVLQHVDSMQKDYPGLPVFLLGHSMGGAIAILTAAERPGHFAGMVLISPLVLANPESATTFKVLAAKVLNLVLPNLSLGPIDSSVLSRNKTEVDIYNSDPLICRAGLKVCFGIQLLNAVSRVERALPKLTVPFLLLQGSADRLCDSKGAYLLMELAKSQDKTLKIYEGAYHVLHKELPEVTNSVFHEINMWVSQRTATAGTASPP
Briefly: Inhibition of monoacylglyceride lipase (MAGL). Type of data set: biochemical. As to the method: (§1) The effects of the phytocannabinoid BDS THCA, CBN, CBGA, CBDA and CBCV were tested to determine whether they were able to inhibit the MAGL and DAGL enzymes which are able to hydrolyse the endogenous cannabinoid 2-AG to arachidonic acid and glycerol. The results generated from these experiments are detailed in Table 5.1 below.
For this experiment CBG BDS was used as this BDS was the easiest to purify and reconstitute. Four different test articles were used: CBG BDS, isolated CBG, CBG-free CBG BDS and CBG reconstituted BDS, whereby the CBG-free BDS (as prepared in Example 1) was spiked with isolated CBG at the same concentration of CBG as CBG BDS. Table 5.2 below details the data obtained.

Data set [2] concerns the target T2, diacylglyceride lipase (DAGL) (Homo sapiens, UniProt Q9Y4D2).
T2 sequence (Q9Y4D2 1-1042): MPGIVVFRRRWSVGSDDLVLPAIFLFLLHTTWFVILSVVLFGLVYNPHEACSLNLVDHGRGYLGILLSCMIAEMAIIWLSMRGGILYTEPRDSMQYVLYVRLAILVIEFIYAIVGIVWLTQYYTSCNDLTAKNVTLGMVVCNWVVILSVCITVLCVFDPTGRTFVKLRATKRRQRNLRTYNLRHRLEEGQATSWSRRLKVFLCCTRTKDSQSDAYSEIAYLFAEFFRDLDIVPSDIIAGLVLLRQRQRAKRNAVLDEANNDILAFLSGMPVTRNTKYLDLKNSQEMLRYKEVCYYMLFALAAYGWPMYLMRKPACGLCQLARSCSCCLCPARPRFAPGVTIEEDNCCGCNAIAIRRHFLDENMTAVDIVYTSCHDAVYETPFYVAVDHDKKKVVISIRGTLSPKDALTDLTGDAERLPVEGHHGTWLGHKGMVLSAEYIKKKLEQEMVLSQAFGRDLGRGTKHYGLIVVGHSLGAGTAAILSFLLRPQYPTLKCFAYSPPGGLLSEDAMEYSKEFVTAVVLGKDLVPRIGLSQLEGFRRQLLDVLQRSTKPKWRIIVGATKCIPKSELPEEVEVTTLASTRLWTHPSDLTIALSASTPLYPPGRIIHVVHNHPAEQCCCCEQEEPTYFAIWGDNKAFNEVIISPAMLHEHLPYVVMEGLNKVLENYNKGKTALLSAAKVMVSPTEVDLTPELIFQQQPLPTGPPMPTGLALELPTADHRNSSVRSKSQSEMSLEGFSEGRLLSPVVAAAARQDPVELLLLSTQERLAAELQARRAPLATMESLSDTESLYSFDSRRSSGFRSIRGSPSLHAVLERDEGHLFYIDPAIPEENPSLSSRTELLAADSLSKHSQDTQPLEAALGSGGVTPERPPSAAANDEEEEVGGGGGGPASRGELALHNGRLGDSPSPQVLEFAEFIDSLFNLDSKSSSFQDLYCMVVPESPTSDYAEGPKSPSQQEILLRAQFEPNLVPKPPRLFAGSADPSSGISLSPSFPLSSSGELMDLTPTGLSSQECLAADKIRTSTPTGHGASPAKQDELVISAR
Briefly: Inhibition of diacylglyceride lipase (DAGL). Type of data set: biochemical. As to the method: as §1

Data set [3] has as its system hormone-insensitive prostate cancer cell line (DU-145). The data set is described as follows: Chemioluminescence assay for caspase 3/7 release (apoptosis), DU-145. It counts as cell-based, human. The conditions noted are these: high dose (25 μM), FIG. 2. As to the method:
(§2) Two different concentrations of cannabinoids were tested; a low dose (10 μM) and a high dose (25 μM). The chemioluminescence that were recorded for each phytocannabinoid are detailed in FIG. 2.

The test system of data set [4] is hormone-sensitive prostate cancer cell line (LNCaP). The data set is described as follows: Chemioluminescence assay for caspase 3/7 release (apoptosis), LNCaP. It counts as cell-based, human. The conditions noted are these: high dose (25 μM), FIG. 2. As to the method: as §2
The next data set deals with T3, GPR55 (Homo sapiens, UniProt Q9Y2T6).
T3 construct: expressed in transfected cells; host or cells: HEK cells (GPR55-HEK)
The data set is described as follows: ERK Alphascreen assay using GPR55-HEK cells. It counts as cell-based. The text has this:
An ERK Alphascreen assay was undertaken using GPR55-HEK cells.
A general note: In Alpha technology, singlet oxygen from a donor bead excites a nearby acceptor bead.

Data set [5] concerns MDA-MB-231 breast cancer cell line. The data set is described as follows: Cell viability of breast cancer cells (Alamar blue assay). The conditions noted are these: 72 hours. It counts as cell-based. On the procedure: Cells were seeded in presence of FBS in 6 wells multiwell and treated with increased concentrations of compounds for 72 hours. Cell viability was assessed by Alamar blue staining.
Isolated phytocannabinoids were tested on the MDA-MB-231 breast cancer cell line in order to determine whether phytocannabinoids were effective in other types of cancer other than prostate cancer. The different isolated phytocannabinoids chosen for this experiment were: CBGA, CBDA, CBDV, CBD, THCV and THC.
(Alamar Blue is a resazurin reagent that responds to reducing activity.)

In the next data set the test system is Glioma cells. Briefly: Human glioma cell vitality (MTT assay). It counts as cell-based. The conditions noted are these: read-out: IC50 on glioma cell vitality. As to the method:
Cells were seeded in presence of FBS in 6 wells multiwell with a density of 8×10^4 cells/well. Glioma cells were treated with increased concentrations of compounds and cell viability was assessed by MTT staining.
CBD BDS and isolated CBD, CBG and CBDV were tested.
(Tetrazolium dyes change colour on reduction, which living cells bring about.)

For data set [6], the system named is hormone sensitive LNCaP cells. The conditions noted are these: 24-48 hours; cited from earlier work.
In the next data set the test system is DU-145. The data set is described as follows: Cell vitality (MTT assay), DU-145. Type of data set: cell-based. The note with it: Homo sapiens. On the procedure:
(§3) Cells were seeded in presence of FBS in 6 wells multiwell with a density of 8×10^4 cells/well (DU-145) or 1×10^5 cells/well (LNCaP). After 7 hours, cells were starved of dihydrotestosterone (DHT) for 15 hours and treated with increased concentrations of compounds for 24 or 48 hours (absence of serum was maintained during the treatments). Cell viability was assessed by MTT staining.
(§4) Phytocannabinoid BDS and their respective isolated phytocannabinoids were tested in both the hormone-insensitive (DU-145) prostate cancer cells and hormone-sensitive (LNCaP) prostate cancer cells. Three different phytocannabinoids were chosen for this experiment: CBG BDS and isolated compound, CBC BDS and isolated compound and CBD BDS and isolated compound.
(§5) The experiment was repeated in the hormone-insensitive (DU-145) prostate cancer cells and hormone-sensitive (LNCaP) prostate cancer cells that had not been starved of DHT. Here just the CBG BDS and isolated CBG are illustrated in Table 7.2 below.

The next data set deals with LNCaP. Briefly: Cell vitality (MTT assay), LNCaP. Type of data set: cell-based. The note with it: Homo sapiens, read-out: IC50 on cell vitality. As to the method: as §3, §4, §5
Data set [7] concerns Aberrant crypt focus (ACF), polyps and tumours. Briefly: Colon carcinogenesis in the mouse induced by azoxymethane. It counts as in vivo. An excerpt: Aberrant crypt focus (ACF), polyps and tumours were induced in the mouse by the carcinogenic substance azoxymethane. The phytocannabinoids were given (i.p.) to the mice three times per week for a period of three months. The COX-2 inhibitor celecoxib was used as a positive control.

A further data set concerns U87 glioma cells. Briefly: Viability of U87 glioma cells (MTT assay), THC, CBD, TMZ alone and combined. The conditions noted are these: TMZ 100 μM alone, Table 12.2. Type of data set: cell-based, human.
Data set [8] concerns human glioma xenograft tumours. Briefly: Human glioma xenograft tumour volume. Type of data set: in vivo. The arrangement: unit not given here. The conditions noted are these: TMZ (100 μM) alone; Table 13.2. On the procedure: The phytocannabinoids were also tested with the TMZ as is detailed in Table 13.2 below.
The mark [9] stands for this setting: at 50 μM, read-out: Max concentration tested (% inhibition), MAGL.
Where [10] appears, read: read-out: Max concentration tested (% inhibition), DAGL.
Where [11] appears, read: DU-145, 24 h, read-out: IC50 on cell vitality.
[12] abbreviates: DU-145, 48 h, read-out: IC50 on cell vitality.

T3 sequence (Q9Y2T6 whole entry, species assumed): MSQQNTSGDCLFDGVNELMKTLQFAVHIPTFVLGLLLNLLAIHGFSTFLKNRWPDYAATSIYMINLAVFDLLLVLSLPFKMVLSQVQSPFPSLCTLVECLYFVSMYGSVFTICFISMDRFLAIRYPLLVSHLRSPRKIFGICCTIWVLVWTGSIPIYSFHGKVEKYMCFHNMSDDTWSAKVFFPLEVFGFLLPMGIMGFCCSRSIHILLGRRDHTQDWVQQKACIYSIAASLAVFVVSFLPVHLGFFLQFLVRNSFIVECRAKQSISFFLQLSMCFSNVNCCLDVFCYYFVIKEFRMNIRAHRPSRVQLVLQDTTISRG

As to `CCCc1cc(O)c2c(c1)OC(C)(CCC=C(C)C)C=C2` (stereo not drawn) [CBCV], the IC50 in data set [1] (Table 5.1, read-out: MAG IC50) is above 50 µM. Also, the values for the inhibition at 50 µM in data set [1] (setting [9]) and in [2] (setting [10]) were 4.8% and 18.9%, respectively.

For `CCCc1cc2c(c(O)c1C(=O)O)[C@@H]1C=C(C)CC[C@H]1C(C)(C)O2` [THCVA, Tetrahydrocannabivarinic acid], the “pro-apoptotic effect (chemioluminescence, caspase 3/7 release)” value was “highest pro-apoptotic effects” in data set [3] and “highest pro-apoptotic effect” in [4].

Take `CCCc1cc(O)c(C/C=C(\C)CCC=C(C)C)c(O)c1` [CBGV, Cannabigerol propyl variant]: the “Effect at GPR55” value on GPR55 is “Antagonist”.

In data set [1], `CCCCCc1cc(O)c2c(c1)OC(C)(C)c1ccc(C)cc1-2` [CBN, Cannabinol] had an IC50 above 50 µM. Besides, the inhibition at 50 µM in [1] (setting [9]) was 31.5%; in [2] (setting [10]) it was 26.9%.

For `C=C(C)[C@@H]1CCC(C)=C[C@H]1c1c(O)cc(CCCCC)c(C(=O)O)c1O` [CBDA, Cannabidiolic acid], on GPR55, the “Effect at GPR55” value was “Antagonist”. The IC50 in data set [1] (Table 5.1, read-out: MAG IC50) is above 50 µM; in [5] (Homo sapiens) it was 3.9 µM. Moreover, in data set [1] (setting [9]), the inhibition at 50 µM turned out to be 18.5%. For the same molecule, in data set [2] (at 100 μM, read-out: Max concentration tested (% inhibition), DAGL), the inhibition at 100 µM amounted to 91.4%.

Turning to `C=C(C)[C@@H]1CCC(C)=C[C@H]1c1c(O)cc(CCC)cc1O` [CBDV, Cannabidivarin], the “Effect at GPR55” value on GPR55 is “Antagonist”. In addition, the IC50 in data set [5] (Homo sapiens) worked out at 5 µM; in the data set with Glioma cells it was 12.4 µM.

Consider `Cc1c(C(=O)c2cccc3ccccc23)c2cccc3c2n1[C@H](CN1CCOCC1)CO3` [WIN-55,212-2], for which, in data set [6], the “inhibition of cell growth” value is “inhibition of cell growth”.

Consider `CCCc1cc(O)c2c(c1)OC(C)(C)[C@@H]1CCC(C)=C[C@@H]21` [THCV, Tetrahydrocannabivarin], for which the “pro-apoptotic effect (chemioluminescence, caspase 3/7 release)” value in data set [3] was “apotosis levels over that of the control”. For the same molecule, at GPR55, the “Effect at GPR55” value is listed as “Antagonist (at low concentrations)”. In data set [5] (Homo sapiens), the midpoint of inhibition, the IC50, lay at 6.5 µM.

For the molecule `CCCCCc1cc(O)c(C/C=C(\C)CCC=C(C)C)c(O)c1` [CBG, Cannabigerol], a half-maximal effect in data set [1] (Table 5.2, BDS vs isolated vs reconstituted) (EC50) was put at 195 µM. Also, the inhibition at 100 µM in data set [1] (Table 5.2, read-out: Max tested on MAGL % inhibition) is 31.5%. The IC50 was 11.8 µM in the data set on DU-145 (setting [11]); 5.8 µM with DU-145 (setting [12]); above 25 µM with DU-145 (DU-145, read-out: IC50 on cell vitality); 10.8 µM with LNCaP (24 h); 8.1 µM with LNCaP (48 h); above 25 µM in the data set with LNCaP. Moreover, in the data set on Glioma cells, the IC50 is 12.4 µM. The “protective effect against the experimentally induced colon carcinogenesis” value in data set [7] (FIG. 6 a)) is “most statistically significant results”. For the same molecule, the “formation of ACF with 4 or more crypts” value in [7] (FIG. 6 b)) was “no ACF with greater than 4 crypts”. Besides, the “numbers of tumours per animal” value in data set [7] (i.p. three times per week for three months; FIG. 5 c), FIG. 6 c)) is reported as “no tumours were produced”.

As to `CCCCCc1cc(O)c2c(c1)OC(C)(CCC=C(C)C)C=C2` (stereo not drawn) [CBC, Cannabichromene], the IC50 in the data set with DU-145 (setting [11]) was 7.5 µM; in the data set with DU-145 (setting [12]) it was 5.6 µM; with LNCaP (24 h) it was 10.8 µM; in the data set on LNCaP (48 h), 6 µM.

In turn, `CCCCCc1cc2c(c(O)c1C(=O)O)[C@@H]1C=C(C)CC[C@H]1C(C)(C)O2` [THCA, Tetrahydrocannabinolic acid] yielded a concentration for half-maximal inhibition (IC50) in data set [1] of 46 µM. Besides, the inhibition at 100 µM in [1] (read-out: Max concentration tested (% inhibition), MAGL) was determined as 81.9%. Also, in data set [2] (setting [10]), the inhibition at 50 µM was 79.3%.

In the case of `CCCCCc1cc(O)c(C/C=C(\C)CCC=C(C)C)c(O)c1C(=O)O` [CBGA], the “Effect at GPR55” value at GPR55 is reported as “Inverse agonist”. Moreover, the concentration for half-maximal inhibition (IC50) is above 50 µM in [1] (Table 5.1, read-out: MAG IC50); 30 µM in data set [2] (Table 5.1); 2.2 µM in data set [5]. In addition, the “Max concentration tested (% inhibition), MAGL” value in data set [1] (at 50 μM) is recorded as “(17.2%)”. In data set [2] (at 100 μM), the “Max concentration tested (% inhibition), DAGL” value is recorded as “(67.5%)”.

For the molecule `Cn1nnc2c(C(N)=O)ncn2c1=O` [TMZ, temazolamide, reference compound], in the data set with U87 glioma cells, the “Cell Viability (%)” value was 82%. Further, the “Tumour volume (increase from day 1)” value in data set [8] is 4.1.

Source of the values: US8790719B2, “Phytocannabinoids in the treatment of cancer” (GW Pharma Limited, priority 2010, dated 2014).
